Experimental data from PubChem BioAssay AID248 (DTP/NCI, 2004).
Values joined by “and” are separate entries in the source; they are usually repeats but may differ in a detail not shown here. Identical values can stand only once. Toxic doses and inconclusive results are not listed. Cut-off read from the data, not from the text of the source: active = T/C of 150% or more; inactive = T/C below 125%.

Test system: L1210 leukemia ip in BDF1 mice, survival T/C
Experiment: NCI In Vivo Anticancer Drug Screen. Data for tumor model L1210 Leukemia (intraperitoneal) in B6D2F1 (BDF1) mice
Conditions: endpoint: mean survival time, higher = longer survival
Outline: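 Antitumor effect is assessed in tumor-bearing animals. Survival in the compound arm is compared with a vehicle-dosed control arm and expressed as their quotient.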

[1] = dose: 100.0 mg/kg/injection, schedule: Q01DX001 (ip), vehicle: saline
[2] = dose: 200.0 mg/kg/injection, schedule: Q01DX001 (ip), vehicle: saline
[3] = dose: 400.0 mg/kg/injection, schedule: Q01DX001 (ip), vehicle: saline
[4] = dose: 100.0 mg/kg/injection, schedule: Q01DX009 (ip), vehicle: Klucel (hydroxypropylcellulose) (HPC)
[5] = dose: 100.0 mg/kg/injection, schedule: Q04DX003 (ip), vehicle: Klucel (hydroxypropylcellulose) (HPC)
[6] = dose: 200.0 mg/kg/injection, schedule: Q01DX009 (ip), vehicle: Klucel (hydroxypropylcellulose) (HPC)
[7] = dose: 200.0 mg/kg/injection, schedule: Q04DX003 (ip), vehicle: Klucel (hydroxypropylcellulose) (HPC)
[8] = dose: 400.0 mg/kg/injection, schedule: Q01DX009 (ip), vehicle: Klucel (hydroxypropylcellulose) (HPC)
[9] = dose: 400.0 mg/kg/injection, schedule: Q04DX003 (ip), vehicle: Klucel (hydroxypropylcellulose) (HPC)
[10] = dose: 100.0 mg/kg/injection, schedule: Q01DX009 (ip), vehicle: saline with Tween-80
[11] = dose: 200.0 mg/kg/injection, schedule: Q01DX009 (ip), vehicle: saline with Tween-80
[12] = dose: 400.0 mg/kg/injection, schedule: Q01DX009 (ip), vehicle: saline with Tween-80
[13] = dose: 50.0 mg/kg/injection, schedule: Q01DX009 (ip), vehicle: Klucel (hydroxypropylcellulose) (HPC)
[14] = dose: 100.0 mg/kg/injection, schedule: Q04DX003 (ip), vehicle: saline
[15] = dose: 200.0 mg/kg/injection, schedule: Q04DX003 (ip), vehicle: saline

Measured: T/C

O=C(O)c1c(O)c2cc(Br)ccc2oc1=O
inactive: [1] 98 % of control | [2] 98 % of control | [3] 102 % of control

CN(C)c1ccc(C(=C(C#N)C#N)c2ccc(N(C)C)cc2)cc1
inactive: [4] 98 % of control | [5] 95 % of control | [6] 98 % of control | [7] 101 % of control | [8] 102 % of control | [9] 101 % of control

Ic1nc(I)c(I)[nH]1
inactive: [10] 102 % of control | [11] 105 % of control | [12] 102 % of control

CCOC(=O)c1cnc(SC)[nH]c1=O
inactive: dose: 50.0 mg/kg/injection, schedule: Q01DX001 (ip), vehicle: saline 92 % of control | [1] 95 % of control | [2] 98 % of control | [3] 98 % of control

CC(=O)OCC(=O)[C@@]1(O)CC[C@H]2[C@@H]3CCC4=CC(=O)[C@H](C)C[C@]4(C)[C@H]3[C@@H](O)C[C@@]21C
inactive: dose: 50.0 mg/kg/injection, schedule: Q01DX001 (sc), vehicle: steriod suspending solution 111 % of control | dose: 100.0 mg/kg/injection, schedule: Q01DX001 (sc), vehicle: steriod suspending solution 102 % of control | dose: 100.0 mg/kg/injection, schedule: Q04DX003 (sc), vehicle: steriod suspending solution 100 % of control | dose: 200.0 mg/kg/injection, schedule: Q01DX001 (sc), vehicle: steriod suspending solution 102 % of control | dose: 200.0 mg/kg/injection, schedule: Q04DX003 (sc), vehicle: steriod suspending solution 105 % of control | dose: 400.0 mg/kg/injection, schedule: Q01DX001 (sc), vehicle: steriod suspending solution 110 % of control | dose: 400.0 mg/kg/injection, schedule: Q04DX003 (sc), vehicle: steriod suspending solution 107 % of control

COc1cc2cccc(OC)c(=O)c2c(O)c1OC
inactive: dose: 25.0 mg/kg/injection, schedule: Q01DX009 (ip), vehicle: Klucel (hydroxypropylcellulose) (HPC) 92 % of control | [13] 96 % of control | [4] 92 % of control and 106 % of control | [5] 101 % of control | [7] 92 % of control | [9] 99 % of control

Cc1cc(C)n(/N=C/c2ccc([N+](=O)[O-])o2)c(=O)c1C#N
inactive: dose: 100.0 mg/kg/injection, schedule: Q01DX001 (ip), vehicle: carboxymethylcellulose (CMC) 88 % of control | dose: 200.0 mg/kg/injection, schedule: Q01DX001 (ip), vehicle: carboxymethylcellulose (CMC) 91 % of control | dose: 400.0 mg/kg/injection, schedule: Q01DX001 (ip), vehicle: carboxymethylcellulose (CMC) 88 % of control

O=C(O)c1c(Cl)c(Cl)c(Cl)c(Cl)c1C(=O)O.O=C(O)c1c(Cl)c(Cl)c(Cl)c(Cl)c1C(=O)O.[Pt]
inactive: dose: 100.0 mg/kg/injection, schedule: Q04DX003 (ip), vehicle: saline sonified 105 % of control

Cc1ccc(-c2oc(-c3ccc(C)cc3)c3cc(C)c(C)cc23)cc1
inactive: dose: 100.0 mg/kg/injection, schedule: Q01DX001 (ip), vehicle: Klucel (hydroxypropylcellulose) (HPC) 87 % of control | dose: 200.0 mg/kg/injection, schedule: Q01DX001 (ip), vehicle: Klucel (hydroxypropylcellulose) (HPC) 90 % of control | dose: 400.0 mg/kg/injection, schedule: Q01DX001 (ip), vehicle: Klucel (hydroxypropylcellulose) (HPC) 88 % of control

COc1ccc(/C=N/NC(=O)C(O)c2ccccc2)cc1 (stereo not drawn)
inactive: [4] 92 % of control | [6] 99 % of control | [8] 86 % of control

COc1cccc(CNCc2cccc(OC)c2O)c1O
inactive: [1] 96 % of control

CCC(C)C(C(=O)O)c1ccccc1 (stereo not drawn)
inactive: dose: 100.0 mg/kg/injection, schedule: Q04DX003 (ip), vehicle: saline with Tween-80 100 % of control | dose: 200.0 mg/kg/injection, schedule: Q04DX003 (ip), vehicle: saline with Tween-80 98 % of control | dose: 400.0 mg/kg/injection, schedule: Q04DX003 (ip), vehicle: saline with Tween-80 94 % of control

Cc1c(C2=NCC(C)S2)ccc(O)c1N (stereo not drawn)
inactive: dose: 62.5 mg/kg/injection, schedule: Q04DX002 (ip), vehicle: saline with Tween-80 93 % of control | dose: 125.0 mg/kg/injection, schedule: Q04DX002 (ip), vehicle: saline with Tween-80 90 % of control | dose: 250.0 mg/kg/injection, schedule: Q04DX002 (ip), vehicle: saline with Tween-80 93 % of control

CCC/C(=N/NC(=O)CNC(=O)c1ccccc1)c1ccccc1
inactive: [10] 100 % of control | [11] 96 % of control | [12] 92 % of control

CCOC(=O)C(C(C)=O)C(c1ccc(OCc2ccccc2)c(C)c1)C(C(C)=O)C(=O)OCC (stereo not drawn)
inactive: [14] 94 % of control | [15] 94 % of control | dose: 400.0 mg/kg/injection, schedule: Q04DX003 (ip), vehicle: saline 95 % of control

CNC(=O)c1cccc2c1-c1ccccc1C2=O
inactive: dose: 100.0 mg/kg/injection, schedule: Q01DX001 (ip), vehicle: other 91 % of control | dose: 200.0 mg/kg/injection, schedule: Q01DX001 (ip), vehicle: other 91 % of control | dose: 400.0 mg/kg/injection, schedule: Q01DX001 (ip), vehicle: other 91 % of control

CC(=O)OCC1OC(Oc2ccccc2)C(OC(C)=O)C(OC(C)=O)C(OC(C)=O)C1OC(C)=O (stereo not drawn)
inactive: [13] 104 % of control | [4] 96 % of control | [6] 96 % of control

C=CCC[P+](c1ccccc1)(c1ccccc1)c1ccccc1
inactive: dose: 12.5 mg/kg/injection, schedule: Q04DX003 (ip), vehicle: Klucel (hydroxypropylcellulose) (HPC) 97 % of control | dose: 16.0 mg/kg/injection, schedule: Q04DX003 (ip), vehicle: Klucel (hydroxypropylcellulose) (HPC) 90 % of control | dose: 25.0 mg/kg/injection, schedule: Q04DX003 (ip), vehicle: Klucel (hydroxypropylcellulose) (HPC) 104 % of control | dose: 35.0 mg/kg/injection, schedule: Q04DX003 (ip), vehicle: Klucel (hydroxypropylcellulose) (HPC) 101 % of control | dose: 50.0 mg/kg/injection, schedule: Q04DX003 (ip), vehicle: Klucel (hydroxypropylcellulose) (HPC) 95 % of control and 103 % of control

Oc1ccccc1O.[O-]c1ccccc1[O-].[O-]c1ccccc1[O-].[O]=[V+2]
inactive: dose: 4.0 mg/kg/injection, schedule: Q01DX015 (ip), vehicle: saline 100 % of control | dose: 8.0 mg/kg/injection, schedule: Q01DX015 (ip), vehicle: saline 94 % of control | dose: 12.5 mg/kg/injection, schedule: Q04DX003 (ip), vehicle: saline 111 % of control | dose: 16.0 mg/kg/injection, schedule: Q01DX015 (ip), vehicle: saline 96 % of control | dose: 18.75 mg/kg/injection, schedule: Q01DX009 (ip), vehicle: saline 90 % of control | dose: 25.0 mg/kg/injection, schedule: Q04DX003 (ip), vehicle: saline 102 % of control | dose: 32.0 mg/kg/injection, schedule: Q01DX015 (ip), vehicle: saline 102 % of control | dose: 37.5 mg/kg/injection, schedule: Q01DX009 (ip), vehicle: saline 101 % of control | dose: 50.0 mg/kg/injection, schedule: Q04DX003 (ip), vehicle: saline 100 % of control | dose: 75.0 mg/kg/injection, schedule: Q04DX003 (ip), vehicle: saline 97 % of control

CCCCOC(=N)N(CCCC)CC(C)(C)[N+](=O)[O-]
inactive: dose: 44.0 mg/kg/injection, schedule: Q01DX Z (ip), vehicle: methylcellulose (MC) 98 % of control | dose: 100.0 mg/kg/injection, schedule: Q01DX Z (ip), vehicle: methylcellulose (MC) 98 % of control

O=C(CCl)OC(=O)C(Cl)(Cl)Cl
inactive: [14] 102 % of control | [15] 96 % of control

CCCCCCCCCCCCCCCCOc1ccc(OC)cc1
inactive: [5] 102 % of control | [7] 92 % of control | [9] 92 % of control

CS(=O)(=O)Nc1ccc(C(=O)O)cc1
inactive: [4] 97 % of control | [5] 100 % of control | [6] 98 % of control | [7] 107 % of control | [8] 98 % of control | [9] 105 % of control

Cc1ccc(NC(=O)COc2cc(Cl)c(Cl)cc2Cl)cc1C
inactive: dose: 25.0 mg/kg/injection, schedule: Q01DX009 (ip), vehicle: saline with Tween-80 89 % of control | dose: 50.0 mg/kg/injection, schedule: Q01DX009 (ip), vehicle: saline with Tween-80 97 % of control | [10] 89 % of control | [12] 94 % of control

N#Cc1ccccc1OCCCOc1ccccc1C#N
inactive: dose: 75.0 mg/kg/injection, schedule: Q01DX009 (ip), vehicle: Klucel (hydroxypropylcellulose) (HPC) 100 % of control | dose: 150.0 mg/kg/injection, schedule: Q01DX009 (ip), vehicle: Klucel (hydroxypropylcellulose) (HPC) 99 % of control | dose: 300.0 mg/kg/injection, schedule: Q01DX009 (ip), vehicle: Klucel (hydroxypropylcellulose) (HPC) 106 % of control
